Data taken from paper PMC6981637, “Tetrahydroquinoline-Isoxazole/Isoxazoline Hybrid Compounds as Potential Cholinesterases Inhibitors: Synthesis, Enzyme Inhibition Assays, and Molecular Modeling Studies” (International Journal of Molecular Sciences, 2019).
Where “and” joins values, the source holds several entries; their conditions need not be identical. Equal values may be shown once. Read-outs that look alike come from different tables or passages of the source.

What was measured:
BChE (from bovine serum) = target: T1, BChE (from bovine serum) (Bos taurus, UniProt P32749); assay: BChE inhibitory activity (Ellman method); format: biochemical; conditions: for IC50: average from three independent experiments ± SEM; for selectivity against BChE: conclusions
T1 construct: purchased Sigma-Aldrich

[1] = target: AChE (from Electrophorus electricus) (Electrophorus electricus, UniProt O42275)
[2] = Table 2, THQ–isoxazole hybrids 6, read-out: BChE (IC50)
[3] = Table 1, THQ–isoxazoline hybrids 5, read-out: IC50 BChE

Sequence of AChE (from Electrophorus electricus) (O42275 24-633): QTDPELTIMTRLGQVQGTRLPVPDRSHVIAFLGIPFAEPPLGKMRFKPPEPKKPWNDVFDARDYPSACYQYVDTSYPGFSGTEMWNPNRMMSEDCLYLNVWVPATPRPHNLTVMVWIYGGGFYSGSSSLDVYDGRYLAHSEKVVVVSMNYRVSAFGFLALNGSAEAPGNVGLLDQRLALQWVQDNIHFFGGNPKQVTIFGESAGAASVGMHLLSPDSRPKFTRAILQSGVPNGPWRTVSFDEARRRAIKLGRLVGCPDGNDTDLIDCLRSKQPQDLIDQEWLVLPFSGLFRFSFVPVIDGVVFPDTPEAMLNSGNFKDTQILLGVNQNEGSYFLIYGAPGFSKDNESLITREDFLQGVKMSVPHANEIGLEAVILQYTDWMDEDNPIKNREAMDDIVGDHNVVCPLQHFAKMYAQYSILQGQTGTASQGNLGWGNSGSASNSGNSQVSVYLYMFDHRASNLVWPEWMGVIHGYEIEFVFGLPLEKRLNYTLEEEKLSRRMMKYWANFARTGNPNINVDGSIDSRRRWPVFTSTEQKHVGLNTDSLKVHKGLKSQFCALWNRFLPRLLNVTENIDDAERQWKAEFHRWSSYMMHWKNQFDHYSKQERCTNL
T1 sequence (P32749 29-602): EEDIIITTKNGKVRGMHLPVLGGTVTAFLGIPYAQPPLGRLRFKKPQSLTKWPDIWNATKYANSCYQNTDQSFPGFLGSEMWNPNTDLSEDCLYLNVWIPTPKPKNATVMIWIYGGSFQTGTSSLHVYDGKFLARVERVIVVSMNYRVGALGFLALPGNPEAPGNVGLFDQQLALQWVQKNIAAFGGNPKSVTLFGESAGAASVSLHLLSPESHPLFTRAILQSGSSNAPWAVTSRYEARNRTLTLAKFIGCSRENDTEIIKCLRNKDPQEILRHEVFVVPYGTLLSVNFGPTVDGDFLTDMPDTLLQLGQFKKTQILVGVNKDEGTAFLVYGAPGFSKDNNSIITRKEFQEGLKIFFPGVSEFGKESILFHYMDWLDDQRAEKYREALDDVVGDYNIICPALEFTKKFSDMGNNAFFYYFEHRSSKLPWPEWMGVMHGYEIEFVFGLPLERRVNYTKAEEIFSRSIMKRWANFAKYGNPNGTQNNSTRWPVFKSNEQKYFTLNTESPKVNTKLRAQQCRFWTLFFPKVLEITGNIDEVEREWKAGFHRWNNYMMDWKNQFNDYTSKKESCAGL

Row | SMILES | IC50 (BChE (from bovine serum); [2]) | SI [1] | IC50 ([1]; read-out: AChE (IC50)) [µM] | IC50 (BChE (from bovine serum); [3]) [µM] | selectivity for inhibiting AChE [1] | IC50 ([1]; read-out: IC50 AChE) [µM] | selectivity against BChE (BChE (from bovine serum))
1 | COc1ccc(-c2cc(CN3CCC(N4CCCC4=O)c4cc(F)ccc43)on2)cc1OC (stereo not shown) [6w, 5-((6′-fluoro-4′-(2′’-oxopyrrolidin-1′’-yl)-3′,4′-dihydroquinolin-1′(2′H)-yl)methyl)-3-(3,4-dimethoxyphenyl)isoxazole] | 46.92 ± 0.01 µM | 2.79 | 16.83 ± 0.002 |  |  |  | 
2 | COc1ccc2c(c1)C(N1CCCC1=O)CCN2CC1CC(c2ccc(OC)c(OC)c2)=NO1 (stereo not shown) [5k, 3-(3,4-dimethoxyphenyl)-5-[(6-methoxy-4-(2′-oxopyrrolidin-1′-yl)-3,4-dihydroquinolin-1(2H)-yl)-methyl]-4,5-dihydroisoxazole] |  | 16.8 |  | 255.82 ± 0.01 | significant selectivity | 15.26 ± 0.02 | 
3 | O=C1CCCN1C1CCN(CC2CC(c3ccccc3)=NO2)c2ccccc21 (stereo not shown) [5a, 3-phenyl-5-[(4-(2′-oxopyrrolidin-1′-yl)-3,4-dihydroquinolin-1(2H)-yl)-methyl]-4,5 dihydroisoxazole] |  | 1.06 |  | 81.9 ± 0.04 |  | 77.37 ± 0.01 | 
4 | COc1ccc(-c2cc(CN3CCC(N4CCCC4=O)c4cc(Cl)cc(Cl)c43)on2)cc1OC (stereo not shown) [6o, 5-((6′,8′-dichloro-4′-(2′’-oxopyrrolidin-1′’-yl)-3′,4′-dihydroquinolin-1′(2′H)-yl)methyl)-3-(3,4-dimethoxyphenyl)isoxazole] | 313.82 ± 0.01 µM | 3.88 | 80.89 ± 0.04 |  |  |  | 
5 | Cc1ccc2c(c1)C(N1CCCC1=O)CCN2CC1CC(c2ccccc2)=NO1 (stereo not shown) [5e, 5-[(6-methyl-4-(2′-oxopyrrolidin-1′-yl)-3,4-dihydroquinolin-1(2H)-yl)-methyl]-3-phenyl-4,5-dihydroisoxazole] |  | 0.17 |  | 31.4 ± 0.01 |  | 189.1 ± 0.01 | 
6 | COc1ccc2c3c1O[C@H]1C[C@@H](O)C=C[C@@]31CCN(C)C2 [Galantamine, galantamine, reference compound] | 8.8 ± 0.5 µM |  |  | 8.8 ± 0.5 |  |  | 
7 | COc1ccc(-c2cc(CN3CCC(N4CCCC4=O)c4cc(Cl)ccc43)on2)cc1 (stereo not shown) [6m, 5-((6′-chloro-4′-(2′’-oxopyrrolidin-1′’-yl)-3′,4′-dihydroquinolin-1′(2′H)-yl)methyl)-3-(4-methoxyphenyl)isoxazole] | 18.42 ± 0.01 µM | 1.39 | 13.27 ± 0.01 |  |  |  | 
8 | Cc1ccc2c(c1)C(N1CCCC1=O)CCN2Cc1cc(-c2ccccc2)no1 (stereo not shown) [6d, 5-((6′-methyl-4′-(2′’-oxopyrrolidin-1′’-yl)-3′,4′-dihydroquinolin-1′(2′H)-yl)methyl)-3-phenylisoxazole] | 18.51 ± 0.01 µM | 0.49 | 37.84 ± 0.01 |  |  |  | 
9 | COc1cc(-c2cc(CN3CCC(N4CCCC4=O)c4ccccc43)on2)cc(OC)c1OC (stereo not shown) [6c, 3-(3,4,5-trimethoxyphenyl)-5-((4′-(2′’-oxopyrrolidin-1′’-yl)-3′,4′-dihydroquinolin-1′(2′H)-yl)methyl)isoxazole] | 47.96 ± 0.01 µM | 2.17 | 22.07 ± 0.01 |  |  |  | 
10 | O=C1CCCN1C1CCN(CC2CC(c3ccccc3)=NO2)c2ccc(Cl)cc21 (stereo not shown) [5m, 5-[(6-chloro-4-(2′-oxopyrrolidin-1′-yl)-3,4-dihydroquinolin-1(2H)-yl)-methyl]-3-phenyl-4,5-dihydroisoxazole] |  | 0.63 |  | 19.09 ± 0.01 | significant selectivity | 30.1 ± 0.01 | 
11 | COc1ccc(-c2cc(CN3CCC(N4CCCC4=O)c4ccccc43)on2)cc1 (stereo not shown) [6b, 3-(4-methoxyphenyl)-5-((4′-(2′’-oxopyrrolidin-1′’-yl)-3′,4′-dihydroquinolin-1′(2′H)-yl)methyl)isoxazole] | 27.25 ± 0.003 µM | 0.64 | 42.44 ± 0.01 |  |  |  | 
12 | COc1ccc2c(c1)C(N1CCCC1=O)CCN2CC1CC(c2cc(OC)c(OC)c(OC)c2)=NO1 (stereo not shown) [5l, 5-[(6-methoxy-4-(2′-oxopyrrolidin-1′-yl)-3,4-dihydroquinolin-1(2H)-yl)-methyl]-3-(3,4,5-trimethoxyphenyl)-4,5-dihydroisoxazole] |  | 0.40 |  | 43.67 ± 0.02 |  | 109.26 ± 0.01 | 
13 | O=C1CCCN1C1CCN(Cc2cc(-c3ccccc3)no2)c2ccccc21 (stereo not shown) [6a, 3-phenyl-5-((4′-(2′’-oxopyrrolidin-1′’-yl)-3′,4′-dihydroquinolin-1′(2′H)-yl)methyl)isoxazole] | < 7.18 µM and 4.36 µM | 0.04 | 104.74 ± 0.01 |  |  |  | more selective
14 | COc1ccc(C2=NOC(CN3CCC(N4CCCC4=O)c4cc(C)ccc43)C2)cc1OC (stereo not shown) [5g, 3-(3,4-dimethoxyphenyl)-5-[(6-methyl-4-(2′-oxopyrrolidin-1′-yl)-3,4-dihydroquinolin-1(2H)-yl)-methyl]-4,5-dihydroisoxazole] |  | 0.32 |  | 31.49 ± 0.005 |  | 99.71 ± 0.01 | 
15 | O=C1CCCN1C1CCN(Cc2cc(-c3ccccc3)no2)c2ccc(Cl)cc21 (stereo not shown) [6l, 5-((6′-chloro-4′-(2′’-oxopyrrolidin-1′’-yl)-3′,4′-dihydroquinolin-1′(2′H)-yl)methyl)-3-phenylisoxazole] | 14.11 ± 0.02 µM | 0.15 | 92.01 ± 0.05 |  |  |  | more selective
16 | COc1ccc(-c2cc(CN3CCC(N4CCCC4=O)c4cc(F)ccc43)on2)cc1 (stereo not shown) [6v, 5-((6′-fluoro-4′-(2′’-oxopyrrolidin-1′’-yl)-3′,4′-dihydroquinolin-1′(2′H)-yl)methyl)-3-(4-methoxyphenyl)isoxazole] | 83.75 ± 0.01 µM | 1.97 | 42.48 ± 0.004 |  |  |  | 
17 | COc1ccc(-c2cc(CN3CCC(N4CCCC4=O)c4cc(C)ccc43)on2)cc1 (stereo not shown) [6e, 3-(4-methoxyphenyl)-5-((6′-methyl-4′-(2′’-oxopyrrolidin-1′’-yl)-3′,4′-dihydroquinolin-1′(2′H)-yl)methyl)isoxazole] | 79.81 ± 0.06 µM | 2.62 | 30.43 ± 0.02 |  |  |  | 
18 | COc1ccc(C2=NOC(CN3CCC(N4CCCC4=O)c4cc(Cl)ccc43)C2)cc1OC (stereo not shown) [5o, 3-(4,5-dimethoxyphenyl)-5-[(6-chloro-4-(2′-oxopyrrolidin-1′-yl)-3,4-dihydroquinolin-1(2H)-yl)-methyl]-4,5-dihydroisoxazole] |  | 6.35 |  | 83.65 ± 0.01 | significant selectivity | 13.17 ± 0.02 | 
19 | COc1ccc(C2=NOC(CN3CCC(N4CCCC4=O)c4ccccc43)C2)cc1OC (stereo not shown) [5c, 3-(3,4-dimethoxyphenyl)-5-[4-((2′-oxopyrrolidin-1′-yl)-3,4-dihydroquinolin-1(2H)-yl)-methyl]-4,5-dihydroisoxazole] |  |  |  |  |  | 100.65 ± 0.05 | 
20 | O=C1CCCN1C1CCN(Cc2cc(-c3ccccc3)no2)c2ccc(F)cc21 (stereo not shown) [6u, 5-((6′-fluor-4′-(2′’-oxopyrrolidin-1′’-yl)-3′,4′-dihydroquinolin-1′(2′H)-yl)methyl)-3-phenylisoxazole] | 17.74 ± 0.01 µM | 0.15 | 116.63 ± 0.01 |  |  |  | more selective
21 | COc1ccc2c(c1)C(N1CCCC1=O)CCN2Cc1cc(-c2cc(OC)c(OC)c(OC)c2)no1 (stereo not shown) [6k, 3-(3,4,5-trimethoxyphenyl)-5-((6′-methoxy-4′-(2′’-oxopyrrolidin-1′’-yl)-3′,4′-dihydroquinolin-1′(2′H)-yl)methyl)isoxazole] | 73.26 ± 0.01 µM | 3.63 | 20.19 ± 0.02 |  |  |  | 
22 | COc1ccc(C2=NOC(CN3CCC(N4CCCC4=O)c4cc(OC)ccc43)C2)cc1 (stereo not shown) [5j, 3-(4-methoxyphenyl)-5-[(6-methoxy-4-(2′-oxopyrrolidin-1′-yl)-3,4-dihydroquinolin-1(2H)-yl)-methyl]-4,5-dihydroisoxazole] |  | 1.55 |  | 144.71 ± 0.004 |  | 93.66 ± 0.006 | 
23 | COc1ccc(C2=NOC(CN3CCC(N4CCCC4=O)c4ccccc43)C2)cc1 (stereo not shown) [5b, 3-(4-methoxyphenyl)-5-[4-((2′-oxopyrrolidin-1′-yl)-3,4-dihydroquinolin-1(2H)-yl)-methyl]-4,5-dihydroisoxazole] |  | 0.69 |  | 65.59 ± 0.006 |  | 95.14 ± 0.08 | 
24 | COc1ccc(-c2cc(CN3CCC(N4CCCC4=O)c4cc(Br)ccc43)on2)cc1 (stereo not shown) [6z, 3-(4-methoxyphenyl)-5-((6′-bromo-4′-(2′’-oxopyrrolidin-1′’-yl)-3′,4′-dihydroquinolin-1′(2′H)-yl)methyl)isoxazole] | < 7.18 µM and 5.81 µM | 0.48 | 12.19 ± 0.005 |  |  |  | 
25 | COc1cc(C2=NOC(CN3CCC(N4CCCC4=O)c4ccccc43)C2)cc(OC)c1OC (stereo not shown) [5d, 3-(3,4,5-trimethoxyphenyl)-5-[4-((2′-oxopyrrolidin-1′-yl)-3,4-dihydroquinolin-1(2H)-yl)-methyl]-4,5-dihydroisoxazole] |  | 0.27 |  | 13.66 ± 0.01 |  | 49.82 ± 0.03 | 
26 | CCc1ccc2c(c1)C(N1CCCC1=O)CCN2Cc1cc(-c2ccccc2)no1 (stereo not shown) [6q, 5-((6′-ethyl-4′-(2′’-oxopyrrolidin-1′’-yl)-3′,4′-dihydroquinolin-1′(2′H)-yl)methyl)-3-phenylisoxazole] | 108.28 ± 0.01 µM | 1.43 | 75.95 ± 0.04 |  |  |  | 
27 | CCc1ccc2c(c1)C(N1CCCC1=O)CCN2Cc1cc(-c2ccc(OC)cc2)no1 (stereo not shown) [6r, 5-((6′-ethyl-4′-(2′’-oxopyrrolidin-1′’-yl)-3′,4′-dihydroquinolin-1′(2′H)-yl)methyl)-3-(4-methoxyphenyl)isoxazole] | < 7.18 µM and 7.18 µM | 0.38 | 18.83 ± 0.003 |  |  |  | 
28 | COc1ccc(-c2cc(CN3CCC(N4CCCC4=O)c4cc(Cl)ccc43)on2)cc1OC (stereo not shown) [6n, 5-((6′-chloro-4′-(2′’-oxopyrrolidin-1′’-yl)-3′,4′-dihydroquinolin-1′(2′H)-yl)methyl)-3-(3,4-dimethoxyphenyl)isoxazole] | 24.67 ± 0.01 µM | 2.75 | 8.98 ± 0.01 |  |  |  | 
29 | CCc1ccc2c(c1)C(N1CCCC1=O)CCN2Cc1cc(-c2cc(OC)c(OC)c(OC)c2)no1 (stereo not shown) [6t, 5-((6′-ethyl-4′-(2′’-oxopyrrolidin-1′’-yl)-3′,4′-dihydroquinolin-1′(2′H)-yl)methyl)-3-(3,4,5-trimethoxyphenyl)isoxazole] |  |  | 66.77 ± 0.01 |  |  |  | 
